The values that follow are results of earlier work, collected in patent US9624258B2, “Polymorph of regadenoson” (Biophore India Pharmaceuticals PVT. Ltd., priority 2013, dated 2017).

The conditions of data set [1]: background statement.
Another data set deals with A2A adenosine receptor (Homo sapiens, UniProt P29274). The settings on record: background statement on compound of U.S. Pat. No. 6,403,567.
Chain of A2A adenosine receptor (P29274 whole entry): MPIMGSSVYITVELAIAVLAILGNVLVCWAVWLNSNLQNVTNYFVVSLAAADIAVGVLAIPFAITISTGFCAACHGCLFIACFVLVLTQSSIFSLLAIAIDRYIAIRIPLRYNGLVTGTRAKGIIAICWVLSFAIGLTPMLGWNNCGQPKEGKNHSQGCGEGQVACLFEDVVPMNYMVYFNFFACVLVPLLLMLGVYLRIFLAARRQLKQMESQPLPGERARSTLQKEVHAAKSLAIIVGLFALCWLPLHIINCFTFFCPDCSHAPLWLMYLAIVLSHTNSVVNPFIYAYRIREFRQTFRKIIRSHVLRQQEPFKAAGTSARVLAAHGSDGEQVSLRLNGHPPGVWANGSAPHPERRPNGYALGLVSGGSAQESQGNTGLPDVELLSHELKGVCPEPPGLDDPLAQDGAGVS

On to `CNC(=O)c1cnn(-c2nc(N)c3ncn([C@@H]4O[C@H](CO)[C@@H](O)[C@H]4O)c3n2)c1` [Regadenoson, (1-{9-[(4S,2R,3R,5R)-3,4-dihydroxy-5-(hydroxymethyl)oxolan-2-yl)-6-aminopurin-2-yl}pyrazole-4-yl)-N-methylcarboxamide], for which, in data set [1], the biological half-life was 2- to 3 minute. At A2A adenosine receptor, the “A2A adenosine receptor agonist selectivity” value is given as “highly selective A2A adenosine receptor agonist”.
